These results are taken from patent publication US12054494B2, “Compound with anticancer activity” (KYOWA KIRIN CO., LTD., priority 2018, dated 2024).

The structures appear in SMILES notation.

Assay [1] has as its system MYC mRNA expression in SU-DHL-4 cells. Description: Suppressive effect on MYC mRNA expression (qRT-PCR). Format: cell-based. The settings on record: test compound 100 nmol/L, 6 hours. The procedure:
Suppressive Effect on MYC mRNA Expression
SU-DHL-4 cells were cultured at 37° C. using a carbon dioxide gas incubator (95% air, 5% CO2) in RPMI1640 medium in which FBS in an amount to give a final concentration of 10 vol % and PS in an amount to give a final concentration of 1 vol % were added. The cells were passaged twice a week at a volume of 20-40 mL so as to maintain a cell concentration of 1×10^6 cells/mL or less.
The cultured SU-DHL-4 cells were seeded at 6×10^5 cells/well in a transparent 6-well plate (Code No. 140675, Thermo Fisher Scientific). After seeding, the cells were precultured at 37° C. in a carbon dioxide gas incubator for 18 to 25 hours. Next, a 0.1 mmol/L DMSO solution of the test compound was prepared, diluted so that the concentration will be 200 times the final concentration in the RPMI1640 medium containing the above FBS and PS, and 1/200 volume of the diluted solution was added to each well. At this time, the final concentration of DMSO was adjusted to be 0.1 vol %. After adding the test compound, the cells were cultured at 37° C. in a carbon dioxide gas incubator for 6 hours.
Then, the cells were collected by centrifugation and used for extraction of mRNA. mRNA extraction from cells was performed using Maxwell® 16 LEV simplyRNA Purification Kits (Code No. AS1270, Promega). The mRNA recovery protocol was performed according to the manufacturer's recommended protocol attached to the kit.
0.001 mg of the recovered mRNA was converted to cDNA by SuperScript IV VILO Master Mix with ezDNase Enzyme (Code No. 11766050, Thermo Fisher Scientific). The cDNA conversion was performed, according to the manufacturer's recommended protocol attached to the kit, in 0.020 mL of the reaction solution, and GeneAmp® PCR System 9700 (Applied Biosystems) was used. The cDNA-converted sample was diluted 10-fold by adding 0.180 mL of RNase Free Water (Code No. 10977-023, Thermo Fisher Scientific) and used for quantitative real-time polymerase chain reaction (qRT-PCR). For the calibration curve of qRT-PCR, 0.08 mL of RNase Free Water was added to a cDNA sample using DMSO as a test compound for 5-fold dilution. Further, two 5-fold dilutions were prepared stepwise, and these three samples were used as the calibration curve samples.
The following reagents were used for qRT-PCR: TaqMan Gene Expression Assays, Inventoried (Primer probe: Code No. 4331182, Thermo Fisher Scientific, Assay ID: (i) MYC: Hs00153408_m1, (ii) ACTB: Hs01060665_g1, (iii) GAPDH: Hs04420697_g1, (iv) HPRT1: Hs02800695_m1); 2X TaqManR Fast Universal PCR Master Mix, no AmpEraseR UNG (Master Mix: Code No. 4367846, Thermo Fisher Scientific).
Primer probe (0.001 mL), Master Mix (0.010 mL), water (0.004 mL) and the diluted cDNA sample (0.005 mL) were mixed, and qRT-PCR analysis was performed. For qRT-PCR analysis, QuantStudio 7 Flex (Thermo Fisher Scientific) or 7500 Fast Real-Time PCR (Applied Biosystems) was used to measure in Fast mode and analyze. The expression level of the MYC gene was determined by quantifying ACTB, GAPDH, and HPRT1 as housekeeping genes and correcting by the following formula to calculate the suppression rate of (%) of MYC mRNA expression when the test compound was allowed to act at a concentration of 100 nmol/L. Corrected MYC expression=A/B • A: MYC expression level • B: Geometric mean of expression levels of ACTB, GAPDH and HPRT1
Using the corrected values, the suppression rate of MYC expression for the wells to which […] was calculated by the following formula. Suppression rate of MYC expression (%)=100−C/D×100 • C: Corrected MYC expression level in a well containing test compound • D: Corrected MYC expression level in a well to which test compound was not added
Background: Real-time PCR tracks product formation cycle by cycle.

For assay [2], the system named is SU-DHL-4 cells. Description: Inhibitory effect on cell viability (Cell Counting Kit-8). The assay is classed as cell-based. The settings on record: Homo sapiens, 72 hours culture with test compound, concentration showing 90% inhibition rate of cell viability. In outline:
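SU-DHL-4 cells (2000/well, RPMI1640 with 10% FBS) precultured 18-25 h, then exposed to a 9-step compound dilution series (0.1% DMSO final) for 72 h at 37° C. Viability by CCK-8 absorbance at 450 nm after 2-3 h; IC90 computed from inhibition rate relative to untreated and cell-free wells.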
In general terms: Tetrazolium assays rely on reduction of a dye to a coloured formazan, in cell work by metabolically active cells.

On to `CCC(=O)N1c2ccccc2[C@H](Nc2ccc(NC(=O)C#CCNC(=O)C3CCC(N[C@@H]4C[C@H](C)N(C(=O)CC)c5ccccc54)CC3)cc2)C[C@@H]1C` (relative stereo) [Compound 8g, (1R,4r)-4-(((2S*,4R*)-2-Methyl-1-propionyl-1,2,3,4-tetrahydroquinolin-4-yl)amino)-N-(4-((4-(((2S,4R)-2-methyl-1-propionyl-1,2,3,4-tetrahydroquinolin-4-yl)amino)phenyl)amino)-4-oxobut-2-yn-1-yl)cyclohexane-1-carboxamide], for which, in assay [1], the “Suppression rate of MYC mRNA expression” value turned out to be 96.6%.

`CCC(=O)N1c2ccccc2[C@H](Nc2ccc(C(=O)NC3CN(C(=O)c4ccc(C5=NCc6nnc(C)n6-c6sc(C)c(C)c65)cc4)C3)cc2)C[C@@H]1C` [Compound 14k, 4-(((2S,4R)-2-Methyl-1-propionyl-1,2,3,4-tetrahydroquinolin-4-yl)amino)-N-(1-(4-(2,3,9-trimethyl-6H-thieno[3,2-f][1,2,4]triazolo[4,3-a][1,4]diazepin-4-yl)benzoyl)azetidin-3-yl)benzamide] showed an IC90 in assay [2] of 1.8 nM.

In assay [2], `CCC(=O)N1c2ccccc2[C@H](Nc2ccc(C(=O)NCCC(=O)Nc3ccc(C4=NCc5nnc(C)n5-c5sc(C)c(C)c54)cc3)cc2)C[C@@H]1C` [Compound 14m, 4-(((2S,4R)-2-Methyl-1-propionyl-1,2,3,4-tetrahydroquinolin-4-yl)amino)-N-(3-oxo-3-((4-(2,3,9-trimethyl-6H-thieno[3,2-f][1,2,4]triazolo[4,3-a][1,4]diazepin-4-yl)phenyl)amino)propyl)benzamide] registered an IC90 of 1.45 nM.

As for `CCC(=O)N1c2ccccc2[C@H](Nc2ccc(-n3cc(CNC(=O)c4ccc(C5=NCc6nnc(C)n6-c6sc(C)c(C)c65)cc4)nn3)cc2)C[C@@H]1C` [Compound 14n, N-((1-(4-(((2S,4R)-2-Methyl-1-propionyl-1,2,3,4-tetrahydroquinolin-4-yl)amino)phenyl)-1H-1,2,3-triazol-4-yl)methyl)-4-(2,3,9-trimethyl-6H-thieno[3,2-f][1,2,4]triazolo[4,3-a][1,4]diazepin-4-yl)benzamide], the IC90 in assay [2] came to 0.05 nM.

`Cc1sc2c(c1C)C(c1ccc(C(=O)NCC(=O)CNC(=O)c3ccc(C4=NCc5nnc(C)n5-c5sc(C)c(C)c54)cc3)cc1)=NCc1nnc(C)n1-2` [Compound 14o, N,N′-(2-Oxopropane-1,3-diyl)bis(4-(2,3,9-trimethyl-6H-thieno[3,2-f][1,2,4]triazolo[4,3-a][1,4]diazepin-4-yl)benzamide)] had an IC90 in assay [2] of 30.9 nM.

Consider `Cc1sc2c(c1C)C(c1ccc(C(=O)N3CCC(NC(=O)c4ccc(C5=N[C@@H](CC(=O)OC(C)(C)C)c6nnc(C)n6-c6sc(C)c(C)c65)cc4)CC3)cc1)=NCc1nnc(C)n1-2` [Compound 14p, tert-Butyl (S)-2-(2,3,9-trimethyl-4-(4-((1-(4-(2,3,9-trimethyl-6H-thieno[3,2-f][1,2,4]triazolo[4,3-a][1,4]diazepin-4-yl)benzoyl)piperidin-4-yl)carbamoyl)phenyl)-6H-thieno[3,2-f][1,2,4]triazolo[4,3-a][1,4]diazepin-6-yl)acetate], for which the IC90 in assay [2] worked out at 1.27 nM.

In turn, `CCC(=O)N1c2ccccc2[C@H](Nc2ccc(C(=O)NCc3cn(-c4ccc(C5=NCc6nnc(C)n6-c6sc(C)c(C)c65)cc4)nn3)cc2)C[C@@H]1C` [Compound 14q, 4-(((2S,4R)-2-Methyl-1-propionyl-1,2,3,4-tetrahydroquinolin-4-yl)amino)-N-((1-(4-(2,3,9-trimethyl-6H-thieno[3,2-f][1,2,4]triazolo[4,3-a][1,4]diazepin-4-yl)phenyl)-1H-1,2,3-triazol-4-yl)methyl)benzamide] returned an IC90 in assay [2] of 0.17 nM.

`CCC(=O)N1c2ccccc2[C@H](Nc2ccc(-c3cn4c(n3)CN(C(=O)c3ccc(C5=NCc6nnc(C)n6-c6sc(C)c(C)c65)cc3)CC4)cc2)C[C@@H]1C` [Compound 14r, 1-((2S,4R)-2-Methyl-4-((4-(7-(4-(2,3,9-trimethyl-6H-thieno[3,2-f][1,2,4]triazolo[4,3-a][1,4]diazepin-4-yl)benzoyl)-5,6,7,8-tetrahydroimidazo[1,2-a]pyrazin-2-yl)phenyl)amino)-3,4-dihydroquinolin-1(2H)-yl)propan-1-one] showed an IC90 in assay [2] of 1.47 nM.

Regarding `CCC(=O)N1c2ccccc2[C@H](Nc2ccc(SCCNC(=O)c3ccc(C4=NCc5nnc(C)n5-c5sc(C)c(C)c54)cc3)cc2)C[C@@H]1C` [Compound 14s, N-(2-((4-(((2S,4R)-2-Methyl-1-propionyl-1,2,3,4-tetrahydroquinolin-4-yl)amino)phenyl)thio)ethyl)-4-(2,3,9-trimethyl-6H-thieno[3,2-f][1,2,4]triazolo[4,3-a][1,4]diazepin-4-yl)benzamide], the concentration for an effect of 90% (IC90) in assay [2] was 2.2 nM.

`CCC(=O)N1c2ccccc2[C@H](Nc2ccc(-c3nnc(CNC(=O)c4ccc(Cn5c(C(=O)OCCN(C)C)cc6c5CCCC6=O)cc4)o3)cc2)C[C@@H]1C` [Compound 15b, 2-(Dimethylamino)ethyl 1-(4-(((5-(4-(((2S,4R)-2-methyl-1-propionyl-1,2,3,4-tetrahydroquinolin-4-yl)amino)phenyl)-1,3,4-oxadiazol-2-yl)methyl)carbamoyl)benzyl)-4-oxo-4,5,6,7-tetrahydro-1H-indole-2-carboxylate] displayed an IC90 in assay [2] of 1.07 nM.

Regarding `CCC(=O)N1c2ccccc2[C@H](Nc2ccc(-n3cc(CCNC(=O)c4ccc(Cn5c(C(=O)OCCN(C)C)cc6c5CCCC6=O)cc4)nn3)cc2)C[C@@H]1C` [Compound 15c, 2-(Dimethylamino)ethyl 1-(4-((2-(1-(4-(((2S,4R)-2-methyl-1-propionyl-1,2,3,4-tetrahydroquinolin-4-yl)amino)phenyl)-1H-1,2,3-triazol-4-yl)ethyl)carbamoyl)benzyl)-4-oxo-4,5,6,7-tetrahydro-1H-indole-2-carboxylate], the IC90 in assay [2] came out at 0.3 nM.

`CCC(=O)N1c2ccccc2[C@H](Nc2ccc(-c3cnn(CCNC(=O)c4ccc(Cn5c(C(=O)OCCN(C)C)cc6c5CCCC6=O)cc4)c3)cc2)C[C@@H]1C` [Compound 15d, 2-(Dimethylamino)ethyl 1-(4-((2-(4-(4-(((2S,4R)-2-methyl-1-propionyl-1,2,3,4-tetrahydroquinolin-4-yl)amino)phenyl)-1H-pyrazol-1-yl)ethyl)carbamoyl)benzyl)-4-oxo-4,5,6,7-tetrahydro-1H-indole-2-carboxylate] gave a 90% effect concentration (IC90) in assay [2] of 0.16 nM.

In assay [2], `CCC(=O)N1c2ccccc2[C@H](Nc2ccc(-n3cc(CNC(=O)c4ccc(Cn5c(CC)cc6c5CCCC6=O)cc4)nn3)cc2)C[C@@H]1C` [Compound 15f, 4-((2-Ethyl-4-oxo-4,5,6,7-tetrahydro-1H-indol-1-yl)methyl)-N-((1-(4-(((2S,4R)-2-methyl-1-propionyl-1,2,3,4-tetrahydroquinolin-4-yl)amino)phenyl)-1H-1,2,3-triazol-4-yl)methyl)benzamide] showed a 90% effect concentration (IC90) of 0.04 nM.

`CCC(=O)N1c2ccccc2[C@H](Nc2ccc(C(=O)NCc3cn(-c4ccc(Cn5c(CC)cc6c5CCCC6=O)cc4)nn3)cc2)C[C@@H]1C` [Compound 15h, N-((1-(4-((2-Ethyl-4-oxo-4,5,6,7-tetrahydro-1H-indol-1-yl)methyl)phenyl)-1H-1,2,3-triazol-4-yl)methyl)-4-(((2S,4R)-2-methyl-1-propionyl-1,2,3,4-tetrahydroquinolin-4-yl)amino)benzamide]: the concentration for an effect of 90% (IC90) in assay [2] came out at 2.32 nM.

Usually IC90 stands for the concentration at which the effect reaches the 90% level. Read a high IC90 as a need for much substance.
